Legend:
[1] = toxicity (LD50) per os in mice, substantially according to Lichtfield and Wilcoxon; settings: mouse, in vivo, po
Protocol: This activity, expressed as an ED50 value, is moreover coupled with a very low toxicity, expressed as an LD50 value, which was determined substantially according to the method described by Lichtfield and Wilcoxon, Journ. Pharm. Exp. Ther., 96, 99, 1949. In representative experiments, the following results have been obtained: […]

[2] = in vivo activity against experimental infection in mice caused by Trichomonas vaginalis (ED50, Therapeutical Index); settings: mouse, in vivo, po; ratio LD50/ED50, per os mice; read-out: Therapeutical Index (TI)
Protocol: (§1) This activity, expressed as an ED50 value, is moreover coupled with a very low toxicity, expressed as an LD50 value, which was determined substantially according to the method described by Lichtfield and Wilcoxon, Journ. Pharm. Exp. Ther., 96, 99, 1949. In representative experiments, the following results have been obtained:
(§2) which indicate that the compound of the invention is a very useful and promising anti-Trichomonas agent. This becomes even more evident if one considers its Therapeutical Index (TI). Said parameter, which is mathematically expressed by the following ratio LD50 /ED50 gives a reliable idea about the safety of a drug and, considering how it is calculated, it is clear that the higher the TI, the safer the drug is; a high value of the Therapeutical Index means in fact a low effective dose (ED50) in comparison with the lethal dose (LD50). […] As an example, the 5-isopropyl-1-methyl-2-nitroimidazole, described in U.S. Pat. No. 3,499,967 and therein mentioned as one of the most outstanding in vivo active 2-nitroimidazoles against Trichomonas vaginalis, has a Therapeutical Index of 102.
(§3) 1. In the present experiment there are compared the anti-Trichomonas in vivo activities and the Therapeutical Indexes (TI) of the compound of the invention (hereinafter referred to as compound A) and four 5-hydroxy alkyl-2-nitroimidazoles described or falling within prior art patents. In these four compounds the hydroxy group is bound to a primary or secondary carbon atom which not necessarily is linked to the imidazole nucleus.
(§4) 2. In the following set of experiments there are evaluated the variations of Therapeutical Index (positive or negative) which are observed when some 5-alkyl-2 -nitroimidazoles known from the prior art are compared with the corresponding 5-hydroxyalkyl-2-nitroimidazoles, including the new compound A. Obviously all of the compounds are tested for their in vivo activity against Trichomonas vaginalis. […] With reference to the hereinbelow reported table and the first four pair of compounds, the results clearly indicate that the variations of Therapeutical Index which are observed are slightly positive or even negative i.e., that the Therapeutical Index of the known 5-hydroxyalkyl-2-nitroimidazoles either is worse than or is substantially the same as that of the corresponding 5-alkyl compounds: this practically means that no appreciable therapeutical results have been obtained, and that, considering the last pair of substances i.e., compound K and compound A (the compound of the invention), an unrelevant or unfavorable variation of the Therapeutical Index would have to be expected as well. On the contrary, a dramatically favorable and unpredictable variation of this parameter is observed and, clearly, this effect is to be interpreted as a remarkable improvement of the therapeutical (anti-Trichomonas) properties:
(§5) 3. In the third experiment there are evaluated the effects on the Therapeutical Index of the substitution with two methyl groups of two hydrogen atoms of the methyl radical at the 5-position of compound F namely [drawing 17] in comparison with the effects on the same parameter caused by the substitution with two methyl groups of the two hydrogen atoms of the hydroxymethyl group of compound B, namely [drawing 18] The compounds are obviously tested for their anti-Trichomonas in vivo properties.

Trichomonas vaginalis = test: as above; settings: for ED50: po; for ED50 / ED50 mg/kg per os mice: per os, mice, Trichomonas vaginalis infection; for in vivo anti-Trichomonas activity (in words): experimental infection in mice; for Therapeutical Index (comparison in words): mouse, in vivo
Protocol: as §1, §2, §3, §4, §5

[3] = usual in vitro antibacterial tests
From the text: Though the compound of the present invention is formally embraced by the foregoing general formula, it is to be noted that in the cited Belgian Patent only concrete examples of 5-hydroxy lower alkyl substituents are reported, wherein the hydroxy lower alkyl groups are 2-hydroxyethyl or 2-hydroxypropyl, i.e. only primary or secondary alcohols are disclosed.

| SMILES | LD50 [1] [mg/kg] | selectivity ratio [2] | ED50 (Trichomonas vaginalis) [mg/kg] | also measured |
| --- | --- | --- | --- | --- |
| CCCc1cnc([N+](=O)[O-])n1C [reference compound] | 560 | 21.6 | 26 | – |
| COC(C)(C)c1cnc([N+](=O)[O-])n1C [Compound of formula V, 5-[(1-methoxy-1-methyl)ethyl]-1-methyl-2-nitroimidazole] | – | 160 | 2.18 | LD50 mg/kg per os mice [1]: 350 mg/kg; in vivo anti-Trichomonas activity (in words) (Trichomonas vaginalis): valuable degree of in vivo anti-Trichomonas activity; Therapeutical Index (comparison in words) (Trichomonas vaginalis): not so high as that of the compound of formula I |
| CC(CO)c1cnc([N+](=O)[O-])n1C (stereo not drawn) [drawing 6] | 776 | 38.8 | 20 | – |
| Cn1c(CO)cnc1[N+](=O)[O-] [drawing 3] | 350 | 24.8 | 14.1 | – |
| CC(C)c1cnc([N+](=O)[O-])n1C [drawing 13] | – | – | 2.6 | LD50 mg/kg per os mice [1]: 265 mg/kg |
| Cn1c(CO)cnc1[N+](=O)[O-] [Compound B, 5-hydroxymethyl-1-methyl-2-nitroimidazole, reference compound] | – | – | – | Therapeutical Index (comparison in words) (Trichomonas vaginalis): much lower than that of compound A |
| Cn1c(CCO)cnc1[N+](=O)[O-] | 1500 | 43 | 35 | – |
| Cc1cnc([N+](=O)[O-])n1C | 246 | 23.4 | 10.5 | – |
| Cn1c(C(C)(C)O)cnc1[N+](=O)[O-] [Compound A, 5-[(1-hydroxy-1-methyl)ethyl]-1-methyl-2-nitroimidazole] | 730 | 317 | 2.3 | antibacterial properties in vitro (in words) [3]: very interesting antibacterial properties; in vivo anti-Trichomonas activity (in words) (Trichomonas vaginalis): far highest in vivo activity; in vivo anti-Trichomonas activity (in words) (Trichomonas vaginalis; listed as compound of the invention): outstanding in vivo activity |
| CC(O)Cc1cnc([N+](=O)[O-])n1C (stereo not drawn) [drawing 5] | 670 | 39.4 | 17 | – |
| CC(C)c1cnc([N+](=O)[O-])n1C [K, 5-isopropyl-1-methyl-2-nitroimidazole, reference compound] | – | 102 | – | – |
| CCc1cnc([N+](=O)[O-])n1C [reference compound] | 372 | 38 | 9.8 | – |
| CC(O)Cc1cnc([N+](=O)[O-])n1C (stereo not drawn) [drawing 12] | – | – | – | LD50 mg/kg per os mice [1]: 670 mg/kg; ED50 mg/kg per os mice (Trichomonas vaginalis): 17 mg/kg |
| CC(CO)c1cnc([N+](=O)[O-])n1C (stereo not drawn) [drawing 14] | – | – | – | ED50 mg/kg per os mice (Trichomonas vaginalis): 20 mg/kg |

From patent US4041168A, “Nitroimidazole derivative with antibacterial activity” (Gruppo Lepetit S.p.A., priority 1975, dated 1977)
